# Key:
# [1] = tested on: GLP-1R humanized C57BL/6 mice; experiment: Intraperitoneal glucose tolerance (ipGTT) after single administration in GLP-1R humanized mice; assay type: in vivo; conditions: single administration 0.3 mg/kg, glucose 2 g/kg intraperitoneal 1 hour after administration, AUC 0-120 min, versus model control group
# From the text: To evaluate the effect of single administration of the compound of the present invention on blood glucose changes in the intraperitoneal glucose tolerance (ipGTT) experiment in GLP-1R humanized C57BL/6 mice.
# C57BL/6_hGLP-1R, male, 5-8 weeks; Ultra-clean workbench; Electronic balance; Vitality type blood glucose meter; Glucose.
# 3.1 On the day before the experiment, the animals were randomly divided according to their weight, with 5 animals per group. All animals were deprived of food overnight and fasted for more than 16 hours from the time of administration.
# 3.2 0.2 g/mL glucose solution was prepared with pure water and filtered by 0.22 µm filter membrane for use.
# 3.3 On the testing day, the blood glucose value of each animal was measured successively by tail clipping method before administration, which was recorded as Baseline value;
# Blood glucose test method: the mouse was placed in the immobilizer, the tail tip was disinfected with an alcohol cotton ball, then a little tail tip was cut off with scissors, the first drop of blood was discarded, and the second drop of blood was dropped onto the prepared blood glucose test strip to detect the blood glucose value;
# 3.4 The animals were administered according to animal weight, and the administration time was record for each animal. After 1 hour of administration, the blood glucose value of each animal was measured sequentially, and recorded as the 0 minute blood glucose value;
# 3.5 Subsequently, according to the weight of the day, the aminals were immediately injected with pure water or glucose solution into the abdominal cavity, with a volume of 10 mL/kg and a glucose dose of 2 g/kg;
# 3.6 The blood glucose values of each mouse were measured, and the time and data were recorded after 15, 30, 60, 90, and 120 minutes of pure water or glucose solution injection;
# The blood glucose (BG)-time curve was drawn, and the area under the blood glucose-time curve was calculated. The calculation formula is as follows: […]
# Note: BG0, BG15, BG30, BG60, BG90, and BG120 represent blood glucose values before glucose administration (0 min) and 15, 30, 60, 90, and 120 min after glucose administration, respectively.
# The blood glucose decline rate of AUC at each time point was calculated according to the average blood glucose value and AUC of blood glucose at each time point.
# human GLP-1 receptor = biological target: T1, human GLP-1 receptor (Homo sapiens, UniProt P43220); experiment: Stimulation of human GLP1 receptor stable transgenic cell line CHO-K1/GLP-1R/CRE-luc to produce cAMP (HTRF); assay type: cell-based; conditions: cAMP production, CHO-K1/GLP-1R/CRE-luc cells, 30 minutes incubation, 0.5 mM IBMX
# T1 construct: expressed in transfected cells
# From the text: I. Determination of the Ability of the Compound of the Present Invention to Stimulate Human GLP1 Receptor Stable Transgenic Cell Lines to Produce cAMP
# The purpose of this test example is to determine the ability of the compound to activate the human GLP-1 receptor on the cell surface. The EC50 that stimulates […] after agonism characterizes the compound's ability to activate the human GLP-1 receptor.
# The frozen human GLP1 receptor stable transgenic cell line CHO-K1/GLP-1R/CRE-luc was taken from the liquid nitrogen tank, quickly thawed in a 37° C. water bath, resuspended with DMEM/F12 medium, centrifuged, and washed once. The cells were resuspended with the experimental buffer, namely DMEM/F12 medium containing 0.1% casein, and the experimental buffer was used to adjust the cell density. The cells were spread on spread on a 384-well plate at a density of 2500 cells/5 μL/well, and then to each well was added 2.5 μL of buffer-prepared IBMX working solution with a final concentration of IBMX of 0.5 mM, and 2.5 μL of the compound sample with gradient dilution (starting at 1000 nM, 3-fold dilution, 11 concentrations). The plate was centrifuged at 1000 rpm for 1 minute, shaken for 30 seconds to mix well, and incubated at room temperature for 30 minutes. Detection was performed using the Cisbio cAMP—Gs Dynamic kit. cAMP-d2 and Anti-cAMP-Eu^3+-Cryptate were diluted 20-fold with cAMP Lysis & Detection Buffer, respectively, and mixed well. To each well was added 5 μL diluted cAMP-d2 solution, and then added 5 μL diluted Anti-cAMP-Eu3^+-Cryptate solution. The plate was shaken for 30 seconds, and incubated at room temperature for 1 hour in the dark. The signal reading of HTRF was performed using the Biotek Synergy H1 microplate reader with an excitation wavelength of 320 nm and emission wavelengths of 620 nm and 665 nm.
# The signal ratio (665 nm/620 nm*10,000) was calculated, and the signal ratio and sample concentration were nonlinearly fitted using a four-parameter equation in GraphPad Prism 6 to obtain the EC50 value.
# [2] = tested on: GLP-1R humanized C57BL/6 mice fed with high-fat diet; experiment: Long-term administration: body weight and ingestion of GLP-1R humanized mice fed with high-fat diet; assay type: in vivo; conditions: HFD mice; for Weight (g)-D0 Mean: Day 0 (day of first administration, baseline), 10 mg/kg oral once a day; for Weight (g)-D10 Mean / Eeight (g)-D10 Mean: Day 10, 10 mg/kg oral once a day; for Body weight change(%)-D10 Mean: Day 10 versus Day 0, 10 mg/kg oral once a day
# From the text: The purpose of this test is to evaluate the effects of long-term administration of the compound on the body weight and ingestion of GLP-1R humanized C57BL/6 mice fed with high-fat diet.
# C57BL/6_hGLP-1R, male, 5-8 weeks; 60% high-fat diet (HFD); Ultra-clean workbench; Electronic balance.
# 3.1 On the day of feeding with high-fat diet, C57BL/6 mice were randomly divided into two groups according to their weight. The first group was Blank, with 7 mice fed with normal control diet, while the remaining animals were in the modeling group, fed with high-fat diet, and continued until the end of the experiment.
# 3.2 At the 8th week of HFD feeding, the modeling group animals were randomly divided with 7 animals per group according to their weight. The first group was the Vehicle group (Vehicle: 0.5% CMC Na+1% Tween 80), which was given vehicle; The remaining group was the administration group; Administration regimen: Oral administration of the corresponding compound, administration cycle was 14 days, once a day for 14 days, with an administration dose of 10 mg/kg and an administration volume of 10 mL/kg. The Blank group continued to be fed with normal diet without any administration operation.
# 3.3 The day of administration was defined as Day 0.
# 3.4 During each administration, animals were weighed and data was recorded. Oral administration is performed according to body weight, with an administration volume of 10 mL/kg.
# 3.5 Starting from Day 0 of the experiment, the food intake of each group of mice was measured once every three days. Specifically, the feed was changed after each weighing and administration, and the added and remaining amounts were recorded.
# 3.6 On the end day of Day 14, all mice were euthanized sequentially according to grouping order, and the livers were dissected and weighed.
# The weight and weight change rate of mice after administration were summarize and statistically analyzed. Weight change rate calculation: (BWt−BW0)/BW0×100%. BWt represents the weight of the mice on Day t of the experiment, and BW0 represents the weight of the mice on Day 0 of the experiment.
# Calculation of food intake: (added amount (g)−remaining amount (g))/number of animals per cage, cumulative food intake is the sum of daily food intake of each animal during the administration period.
# Experimental data were analyzed using GraphPad Prism software. The t-test method was used for comparison between the two groups. The one-way ANOVA method was used for comparisons between three or more groups.
# [3] = Pharmacokinetic assay of SD rats; assay type: in vivo; conditions: Sprague-Dawley, rat, po; male SD rats, plasma, dose 50 mg/kg (b1219 prints 5 mg/kg)
# Experimental: SD rats were used as test animals. The pharmacokinetic behavior of the following example compounds was studied in the plasma of rats administered orally at a dose of 50 mg/kg.
# Vehicle formula: 0.5% CMC-Na (1% Tween 80);
# Three SD rats per group, male. […]
# Before and after administration, 0.2 mL of blood was collected from the jugular vein at 0, 0.25, 0.5, 1, 2, 4, 6, 8 and 24 hours, placed in EDTA-K2 tubes, centrifuged at 6000 rpm at 4° C. for 6 min to separate the plasma. The plasma samples were stored at −80° C. The […] was fed 4 hours after the administration.
# • 1) 160 μL of acetonitrile was added to 40 μL of the plasma sample for precipitation, and then the mixture was centrifuged at 3500×g for 5-20 min. • 2) After the above process, 100 μL of the supernatant was taken to analyze the concentration of the test compound by LC/MS/MS.
# • Liquid chromatography condition: Shimadzu LC-20AD pump Mass spectrometry condition: AB Sciex API 4000 mass spectrometer Chromatographic column: phenomenex Gemiu 5 μm C18 50×4.6 mm • Mobile phase: Eluent A was 0.1% formic acid in water, and Eluent B was methanol • Flow rate: 1.0 mL/min • Elution time: 0-4.0 minutes, the eluent is as follows:
# The main pharmacokinetic parameters were calculated using WinNonlin 8.2.
# [4] = early clinical practice; cited from earlier work
# T1 sequence (P43220 24-463): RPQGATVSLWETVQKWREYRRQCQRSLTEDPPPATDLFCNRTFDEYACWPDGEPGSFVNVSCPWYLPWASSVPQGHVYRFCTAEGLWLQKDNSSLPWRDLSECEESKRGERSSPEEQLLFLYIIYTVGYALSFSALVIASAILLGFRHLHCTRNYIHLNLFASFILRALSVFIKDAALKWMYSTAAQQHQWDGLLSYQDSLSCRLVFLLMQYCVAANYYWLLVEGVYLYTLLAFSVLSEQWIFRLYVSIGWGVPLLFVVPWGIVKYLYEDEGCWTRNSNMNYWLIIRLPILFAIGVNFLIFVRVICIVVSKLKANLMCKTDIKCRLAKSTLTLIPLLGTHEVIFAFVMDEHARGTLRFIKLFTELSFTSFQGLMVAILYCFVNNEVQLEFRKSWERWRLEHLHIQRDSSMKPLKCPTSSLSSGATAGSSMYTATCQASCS
SMILES,Blood glucose decline rate of AUC % [1] [%],EC50 (human GLP-1 receptor) [nM],Weight (g)-D0 Mean ([2]; the 3rd table) [g],Weight (g)-D10 Mean ([2]; the 3rd table) [g],Body weight change(%)-D10 Mean ([2]; the 3rd table) [%],Weight (g)-D0 Mean ([2]; the 4th table) [g],Eeight (g)-D10 Mean ([2]; the 4th table) [g],Body weight change(%)-D10 Mean ([2]; the 4th table) [%],AUC(0-inf) [3] [ng·h/mL],AUC(0-t) [3] [ng·h/mL],Cmax [3] [ng/mL],Tmax [3] [h],half-life [3] [min],hypoglycemic and weight reducing effects [4]
"[2H]C([2H])([2H])Oc1cc(Cl)ccc1[C@@]1([2H])C=C(F)c2cccc(C3CCN(Cc4nc5ccc(C(=O)O)nc5n4C[C@@H]4CCO4)CC3)c2O1 [Example 41, 2-((4-((R)-2-(4-Chloro-2-(methoxy-d3)phenyl)-4-fluoro-2H-chromen-8-yl-2-d)piperidin-1-yl)methyl)-3-(((S)-oxetan-2-yl)methyl)-3H-imidazolo[4,5-b]pyridine-5-carboxylic acid]",53.09,0.04,28.54,26.20,−8.19,–,–,–,–,–,–,–,–,–
"[2H][C@]1(c2ccc(Cl)cc2F)C=Cc2cccc(C3CCN(Cc4nc5ccc(C(=O)O)nc5n4C[C@@H]4CCO4)CC3)c2O1 [Example 42, 2-((4-((R)-2-(4-Chloro-2-fluorophenyl)-2H-chromen-8-yl-2-d)piperidin-1-yl)methyl)-3-(((S)-oxetan-2-yl)methyl)-3H-imidazolo[4,5-b]pyridine-5-carboxylic acid]",56.79,0.07,28.54,26.04,−8.75,–,–,–,–,–,–,–,–,–
"[2H]C([2H])([2H])Oc1cc(Cl)ccc1[C@@]1([2H])C=Cc2cccc(C3CCN(Cc4nc5ccc(C(=O)O)nc5n4C[C@@H]4CCO4)CC3)c2O1 [Example 43, 2-((4-((R)-2-(4-Chloro-2-(methoxy-d3)phenyl)-2H-chromen-8-yl-2-d)piperidin-1-yl)methyl)-3-(((S)-oxetan-2-yl)methyl)-3H-imidazolo[4,5-b]pyridine-5-carboxylic acid]",46.57,0.05,–,–,–,28.37,26.57,−6.37,–,–,–,–,–,–
"O=C(O)c1ccc2nc(CN3CCC(c4cccc5c4O[C@@H](c4ccc(Cl)cc4F)C=C5)CC3)n(C[C@@H]3CCO3)c2n1 [Example 48, 2-((4-((R)-2-(4-Chloro-2-fluorophenyl)-2H-chromen-8-yl)piperidin-1-yl)methyl)-3-(((S)-oxetan-2-yl)methyl)-3H-imidazolo[4,5-b]pyridine-5-carboxylic acid]",62.89,0.03,–,–,–,28.23,25.85,−8.44,19100,19100,6400,2,228,–
N#Cc1ccc(COc2cccc(C3CCN(Cc4nc5ccc(C(=O)O)cc5n4C[C@@H]4CCO4)CC3)n2)c(F)c1 [PF-06882961],–,–,–,–,–,–,–,–,–,–,–,–,–,significant hypoglycemic and weight reducing effects

# — patent publication US20240360109A1 (SHANGHAI HANSOH BIOMEDICAL CO., LTD., priority 2021, published 2024)
